The values below come from patent US20240174662A1, “SMALL MOLECULE INHIBITORS OF SALT INDUCIBLE KINASES” (Janssen Biotech, Inc., priority 2021, published 2024).

The target of the test is SIK2 (Homo sapiens (Human), UniProt Q9H0K1). The test can be described thus: SIK2 Enzymatic Assay Version 2 (High ATP). In kind it is biochemical. The conditions noted are these: 3 mM ATP and 200 μM HDAC5tide final, ADP-Glo Max luminescence. As to the method: All steps were performed at room temperature. Compounds were pre-plated onto an assay plate using an Echo acoustic dispenser (Labcyte, […] or […]) at 80 nL per well. Enzyme prepared in assay buffer at 6 nM (2× final concentration) was added at 4 μL per well using the Multidrop Combi (Thermo Fisher-used for all additions in this assay) to the assay plate, spun for 1 min at 1000 rpm (Allegra 6KR Beckman Coulter centrifuge), and incubated with compound for 30 minutes. […] ADP-Glo Max Reagent (prepared and aliquoted as per manufacturer instructions) was then added at 8 μL per well, spun and incubated for 2 hours. ADP-Glo Max Detection (prepared and aliquoted as per manufacturer instructions) was added at 8 μL per well to the assay plate, which was spun and incubated for 1 hour. The plate was then read on the Pherastar (BMG Labtech) using a luminescence read. Gain was set between 2200-2500.
Chain of SIK2 (Q9H0K1 whole entry, species assumed): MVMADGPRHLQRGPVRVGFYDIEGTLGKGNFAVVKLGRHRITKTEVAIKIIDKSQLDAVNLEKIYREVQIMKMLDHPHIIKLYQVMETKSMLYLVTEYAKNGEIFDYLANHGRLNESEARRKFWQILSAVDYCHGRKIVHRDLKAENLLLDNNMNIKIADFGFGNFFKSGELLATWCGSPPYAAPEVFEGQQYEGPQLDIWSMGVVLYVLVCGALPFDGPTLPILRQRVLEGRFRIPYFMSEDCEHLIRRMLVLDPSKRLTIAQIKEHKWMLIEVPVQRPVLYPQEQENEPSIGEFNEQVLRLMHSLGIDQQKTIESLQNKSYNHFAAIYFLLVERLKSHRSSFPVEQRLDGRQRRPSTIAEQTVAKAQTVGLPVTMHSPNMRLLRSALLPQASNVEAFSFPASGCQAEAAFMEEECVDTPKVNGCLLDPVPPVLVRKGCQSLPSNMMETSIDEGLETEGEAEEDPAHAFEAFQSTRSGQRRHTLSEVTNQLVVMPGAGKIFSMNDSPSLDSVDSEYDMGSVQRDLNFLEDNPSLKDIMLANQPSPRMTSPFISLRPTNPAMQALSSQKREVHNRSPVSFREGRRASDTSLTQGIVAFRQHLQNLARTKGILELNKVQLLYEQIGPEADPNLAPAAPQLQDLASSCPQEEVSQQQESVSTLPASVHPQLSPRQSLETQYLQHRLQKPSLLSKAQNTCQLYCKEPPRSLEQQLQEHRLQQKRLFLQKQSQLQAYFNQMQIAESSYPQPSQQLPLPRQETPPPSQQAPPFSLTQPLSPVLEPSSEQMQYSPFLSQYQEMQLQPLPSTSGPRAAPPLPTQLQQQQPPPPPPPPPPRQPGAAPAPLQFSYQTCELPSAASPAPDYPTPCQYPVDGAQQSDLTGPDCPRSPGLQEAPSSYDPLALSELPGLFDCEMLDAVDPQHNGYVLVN
A general note: In ADP-Glo the light output rises with the ADP produced.

The IC50 is the concentration that inhibits the measured activity by half. Read a low IC50 as inhibition by little substance. `Cc1cc(Nc2cc3cc(-c4c(OC[C@]5(O)CCOC5)cnn4C)ccn3n2)nc(C)n1` (single isomer, unassigned) [Example 439, (*S)-3-[[5-[2-[(2,6-dimethylpyrimidin-4-yl)amino]pyrazolo[1,5-a]pyridin-5-yl]-1-methyl-pyrazol-4-yl]oxymethyl]tetrahydrofuran-3-ol] registered a 50% inhibitory concentration (IC50) of 174 nM.

`Cc1cc(Nc2cc3cc(-c4c(OC[C@@H]5CC[C@@H]5O)cnn4C)ccn3n2)nc(C)n1` (single isomer, unassigned) [Example 448, (1*S,2*S)-2-[[5-[2-[(2,6-dimethylpyrimidin-4-yl)amino]pyrazolo[1,5-a]pyridin-5-yl]-1-methyl-pyrazol-4-yl]oxymethyl]cyclobutanol]: the midpoint of inhibition, the IC50, lay at 115 nM.

The compound `CCN1CC[C@@H]1COc1cnn(C)c1-c1ccn2nc(Nc3ccnc(C(F)(F)F)n3)cc2c1` [Example 161, 5-[4-[[(2R)-1-ethylazetidin-2-yl]methoxy]-2-methyl-pyrazol-3-yl]-N-[2-(trifluoromethyl)pyrimidin-4-yl]pyrazolo[1,5-a]pyridin-2-amine] displayed a 50% inhibitory concentration (IC50) of under 0.847 nM.

`Cc1cc(Nc2cc3cc(-c4c(OC[C@H]5CCN5C)cnn4C)ccn3n2)nc(C)n1` [Example 2, N-(2,6-dimethylpyrimidin-4-yl)-5-[2-methyl-4-[[(2R)-1-methylazetidin-2-yl]methoxy]pyrazol-3-yl]pyrazolo[1,5-a]pyridin-2-amine] came in with an IC50 of under 0.847 nM.

With `Cc1onc(O[C@H]2CNCC2F)c1-c1ccn2nc(NC(=O)C3CC3)cc2c1` (single isomer, unassigned) [Example 210, N-(5-(3-(((3*S,4*R)-4-fluoropyrrolidin-3-yl)oxy)-5-methylisoxazol-4-yl)pyrazolo[1,5-a]pyridin-2-yl)cyclopropanecarboxamide], the concentration for half-maximal inhibition (IC50) turned out to be 7.5 nM.

As for `Cc1cc(Nc2cc3cc(-c4c(OC[C@H]5CCN5C)cnn4C)ccn3n2)nc(-c2cccnc2)n1` [Example 116, 5-[2-methyl-4-[[(2R)-1-methylazetidin-2-yl]methoxy]pyrazol-3-yl]-N-[6-methyl-2-(3-pyridyl)pyrimidin-4-yl]pyrazolo[1,5-a]pyridin-2-amine], the half-inhibitory concentration (IC50) is under 0.847 nM.

Compound `CN1CCCC[C@H]1COc1cnn(C)c1-c1ccn2nc(NC(=O)C3CC3)cc2c1` [Example 505] yielded an IC50 of 1380 nM.

Regarding `CCN1CC[C@@H]1COc1cnn(C(F)F)c1-c1ccn2nc(Nc3cncc(C)n3)cc2c1` [Example 482, 5-[2-(difluoromethyl)-4-[[(2R)-1-ethylazetidin-2-yl]methoxy]pyrazol-3-yl]-N-(6-methylpyrazin-2-yl)pyrazolo[1,5-a]pyridin-2-amine], the IC50 is 1.8 nM.

Turning to `Cc1cc(Nc2cc3cc(-c4c(OC[C@H]5CCN5C)cnn4C)ccn3n2)nc(CC2CC2)n1` [Example 153, N-[2-(cyclopropylmethyl)-6-methyl-pyrimidin-4-yl]-5-[2-methyl-4-[[(2R)-1-methylazetidin-2-yl]methoxy]pyrazol-3-yl]pyrazolo[1,5-a]pyridin-2-amine], the IC50 was under 0.847 nM.

In the case of `Cc1cncc(Nc2cc3cc(-c4c(CO[C@H]5CN(C)C[C@H]5C)cnn4C)ccn3n2)n1` (stereo in doubt) [Example 378, CIS—*R, *R-5-[4-[(1,4-dimethylpyrrolidin-3-yl)oxymethyl]-2-methyl-pyrazol-3-yl]-N-(6-methylpyrazin-2-yl)pyrazolo[1,5-a]pyridin-2-amine], the IC50 was determined as 12.2 nM.

`Cc1onc(OC[C@H]2N(C)CC2(C)C)c1-c1ccn2nc(NC(=O)C3CC3)cc2c1` [Example 321, N-[5-[5-methyl-3-[[(2S)-1,3,3-trimethylazetidin-2-yl]methoxy]isoxazol-4-yl]pyrazolo[1,5-a]pyridin-2-yl]cyclopropanecarboxamide] showed an IC50 of 52.6 nM.

For the compound `Cc1cc(Nc2cc3cc(-c4c(OC[C@]5(C)CCOC5)cnn4C)ccn3n2)nc(C)n1` (single isomer, unassigned) [Example 440, (*S)—N-(2,6-dimethylpyrimidin-4-yl)-5-[2-methyl-4-[(3-methyltetrahydrofuran-3-yl)methoxy]pyrazol-3-yl]pyrazolo[1,5-a]pyridin-2-amine], the IC50 was found to be 70.1 nM.

The compound `Cn1ncc(OC[C@H]2CCN2CC2COC2)c1-c1ccn2nc(NC(=O)C3CC3)cc2c1` [Example 433, N-[5-[2-methyl-4-[[(2R)-1-(oxetan-3-ylmethyl)azetidin-2-yl]methoxy]pyrazol-3-yl]pyrazolo[1,5-a]pyridin-2-yl]cyclopropanecarboxamide] had an IC50 of 122 nM.

`Cc1cc(Nc2cc3cc(-c4c(OC[C@H]5OCC[C@@H]5O)cnn4C(F)F)ccn3n2)nc(C)n1` [Example 99, (2R,3S)-2-[[1-(difluoromethyl)-5-[2-[(2,6-dimethylpyrimidin-4-yl)amino]pyrazolo[1,5-a]pyridin-5-yl]pyrazol-4-yl]oxymethyl]tetrahydrofuran-3-ol] gave a half-maximal inhibitory concentration (IC50) of 10.9 nM.

The compound `[2H]C([2H])([2H])n1ncc(OC[C@H]2CCN2C)c1-c1ccn2nc(Nc3cc(C)nc(C)n3)cc2c1` [Example 131, N-(2,6-dimethylpyrimidin-4-yl)-5-[4-[[(2R)-1-methylazetidin-2-yl]methoxy]-2-(trideuteriomethyl)pyrazol-3-yl]pyrazolo[1,5-a]pyridin-2-amine] returned an IC50 of under 0.847 nM.

The compound `CCN1CC[C@@H]1COc1cnn(C(F)F)c1-c1ccn2nc(Nc3cnn(C)c3)cc2c1` [Example 104, 5-[2-(difluoromethyl)-4-[[(2R)-1-ethylazetidin-2-yl]methoxy]pyrazol-3-yl]-N-(1-methylpyrazol-4-yl)pyrazolo[1,5-a]pyridin-2-amine] gave an IC50 of 16.9 nM.

Compound `CCN1CC[C@@H]1COc1cnn(C)c1-c1ccn2nc(Nc3ccnc(C)n3)cc2c1` [Example 65, 5-[4-[[(2R)-1-ethylazetidin-2-yl]methoxy]-2-methyl-pyrazol-3-yl]-N-(2-methylpyrimidin-4-yl)pyrazolo[1,5-a]pyridin-2-amine] returned an IC50 of under 0.847 nM.

`Cc1onc(OC[C@@]23CN[C@@H](CO2)C3)c1-c1ccn2nc(NC(=O)C3CC3)cc2c1` [Example 201, N-[5-[5-methyl-3-[[(1R,4R)-5-oxa-2-azabicyclo[2.2.1]heptan-4-yl]methoxy]isoxazol-4-yl]pyrazolo[1,5-a]pyridin-2-yl]cyclopropanecarboxamide] showed a half-maximal inhibitory concentration (IC50) of 42.1 nM.

On to `CN1CC[C@H](Oc2cnn(C)c2-c2ccn3nc(Nc4ccnc(C(F)(F)F)n4)cc3c2)C1` [Example 458, 5-[2-methyl-4-[(3S)-1-methylpyrrolidin-3-yl]oxy-pyrazol-3-yl]-N-[2-(trifluoromethyl)pyrimidin-4-yl]pyrazolo[1,5-a]pyridin-2-amine], for which the IC50 came out at 167 nM.

Take `CO[C@H]1CNC[C@H]1Oc1noc(C)c1-c1ccn2nc(NC(=O)C3CC3)cc2c1` (single isomer, unassigned) [Example 385, (3*R,4*S)—N-[5-[3-(4-methoxypyrrolidin-3-yl)oxy-5-methyl-isoxazol-4-yl]pyrazolo[1,5-a]pyridin-2-yl]cyclopropanecarboxamide]: 124 nM corresponded to half-maximal inhibition (IC50).

`CN1CC[C@@H]1COc1cnn(C)c1-c1ccn2nc(Nc3ccnc(NC4CC4)n3)cc2c1` [Example 128, N2-cyclopropyl-N4-[5-[2-methyl-4-[[(2R)-1-methylazetidin-2-yl]methoxy]pyrazol-3-yl]pyrazolo[1,5-a]pyridin-2-yl]pyrimidine-2,4-diamine] yielded an IC50 of under 0.847 nM.
